Experimental data taken from paper PMC9743148 (Annals of oncology : official journal of the European …, 2020).

How the values were obtained:
[1] = Dose-proportionality power regression of PK parameters; format: in vivo, human; conditions: 8–200-mg dose range t.i.w.
clinical = conditions: human, plasma, oral; for AUC(0-inf): AUC0–inf; for AUC(0-t): AUC0–last
[2] = 4 mg, 4 mg q.d., cycle 1 Day 1, mean
[3] = 4 mg, 4 mg q.d., cycle 1 Day 21, mean
[4] = 8 mg, 8 mg q.d., cycle 1 Day 1, mean
[5] = 8 mg, 8 mg t.i.w., cycle 1 Day 1, mean
[6] = 8 mg, 8 mg q.d., cycle 1 Day 21, mean
[7] = 8 mg, 8 mg t.i.w., cycle 1 Last Wednesday, mean
[8] = 16 mg, 16 mg q.d., cycle 1 Day 1, mean
[9] = 16 mg, 16 mg t.i.w., cycle 1 Day 1, mean
[10] = 16 mg, 16 mg q.d., cycle 1 Day 21, mean
[11] = 20 mg, 20 mg q.d., cycle 1 Day 1, mean
[12] = 20 mg, 20 mg q.d., cycle 1 Day 21, mean
[13] = 24 mg, 24 mg q.d., cycle 1 Day 1, mean
[14] = 24 mg, 24 mg t.i.w., cycle 1 Day 1, mean
[15] = 24 mg, 24 mg q.d., cycle 1 Day 21, mean
[16] = 36 mg, 36 mg t.i.w., cycle 1 Day 1, mean
[17] = 56 mg, 56 mg t.i.w., cycle 1 Day 1, mean
[18] = 80 mg, 80 mg t.i.w., cycle 1 Day 1, mean
[19] = 120 mg, 120 mg t.i.w., cycle 1 Day 1, mean
[20] = 160 mg, 160 mg t.i.w., cycle 1 Day 1, mean

C=CC(=O)N1CC[C@H](n2nc(C#Cc3cc(OC)cc(OC)c3)c3c(N)ncnc32)C1 [futibatinib]
Dose proportionality of Cmax [1]: less than a dose-proportional manner
AUC(0-inf) (clinical; [2]): 117 ng·h/mL
AUC(0-t) (clinical; [2]): 114 ng·h/mL
AUC(0-t) (clinical; [3]): 134 ng·h/mL
Cmax (clinical; [2]): 33.1 ng/mL
Cmax (clinical; [3]): 52.5 ng/mL
half-life (clinical; 4 mg, T1/2, 4 mg q.d., cycle 1 Day 1, mean): 1.75 h
half-life (clinical; 4 mg, T1/2, 4 mg q.d., cycle 1 Day 21, mean): 1.63 h
Tmax (clinical; 4 mg, 4 mg q.d., cycle 1 Day 1, median): 0.96 h
Tmax (clinical; 4 mg, 4 mg q.d., cycle 1 Day 21, median): 1.08 h
AUC(0-inf) (clinical; [4]): 524 ng·h/mL
AUC(0-inf) (clinical; [5]): 315 ng·h/mL
AUC(0-t) (clinical; [4]): 666 ng·h/mL
AUC(0-t) (clinical; [6]): 550 ng·h/mL
AUC(0-t) (clinical; [5]): 304 ng·h/mL
AUC(0-t) (clinical; [7]): 472 ng·h/mL
Cmax (clinical; [4]): 169 ng/mL
Cmax (clinical; [6]): 98.2 ng/mL
Cmax (clinical; [5]): 85.5 ng/mL
Cmax (clinical; [7]): 106 ng/mL
half-life (clinical; 8 mg, T1/2, 8 mg q.d., cycle 1 Day 1, mean): 2.26 h
half-life (clinical; 8 mg, T1/2, 8 mg q.d., cycle 1 Day 21, mean): 2.75 h
half-life (clinical; 8 mg, T1/2, 8 mg t.i.w., cycle 1 Day 1, mean): 2.08 h
half-life (clinical; 8 mg, T1/2, 8 mg t.i.w., cycle 1 Last Wednesday, mean): 2.01 h
Tmax (clinical; 8 mg, 8 mg q.d., cycle 1 Day 1, median): 2 h
Tmax (clinical; 8 mg, 8 mg q.d., cycle 1 Day 21, median): 2 h
Tmax (clinical; 8 mg, 8 mg t.i.w., cycle 1 Day 1, median): 1.04 h
AUC(0-inf) (clinical; [8]): 549 ng·h/mL
AUC(0-inf) (clinical; [9]): 744 ng·h/mL
AUC(0-t) (clinical; [8]): 536 ng·h/mL
AUC(0-t) (clinical; [10]): 737 ng·h/mL
AUC(0-t) (clinical; [9]): 736 ng·h/mL
Cmax (clinical; [8]): 148 ng/mL
Cmax (clinical; [10]): 172 ng/mL
Cmax (clinical; [9]): 207 ng/mL
Cmax (clinical; 16 mg, 16 mg t.i.w., cycle 1 Last Wednesday, mean): 213 ng/mL
half-life (clinical; 16 mg, T1/2, 16 mg q.d., cycle 1 Day 1, mean): 2.73 h
half-life (clinical; 16 mg, T1/2, 16 mg q.d., cycle 1 Day 21, mean): 2.53 h
half-life (clinical; 16 mg, T1/2, 16 mg t.i.w., cycle 1 Day 1, mean): 2.11 h
half-life (clinical; 16 mg, T1/2, 16 mg t.i.w., cycle 1 Last Wednesday, mean): 2.75 h
Tmax (clinical; 16 mg, 16 mg q.d., cycle 1 Day 1, median): 2 h
Tmax (clinical; 16 mg, 16 mg q.d., cycle 1 Day 21, median): 2.07 h
Tmax (clinical; 16 mg, 16 mg t.i.w., cycle 1 Day 1, median): 1 h
Tmax (clinical; 16 mg, 16 mg t.i.w., cycle 1 Last Wednesday, median): 1 h
AUC(0-inf) (clinical; [11]): 1300 ng·h/mL
AUC(0-t) (clinical; [11]): 1190 ng·h/mL
AUC(0-t) (clinical; [12]): 1180 ng·h/mL
Cmax (clinical; [11]): 257 ng/mL
Cmax (clinical; [12]): 171 ng/mL
half-life (clinical; 20 mg, T1/2, 20 mg q.d., cycle 1 Day 1, mean): ~3 h
half-life (clinical; 20 mg, T1/2, 20 mg q.d., cycle 1 Day 21, mean): ~3 h
AUC(0-inf) (clinical; [13]): 1270 ng·h/mL
AUC(0-inf) (clinical; [14]): 2200 ng·h/mL
AUC(0-t) (clinical; [13]): 1220 ng·h/mL
AUC(0-t) (clinical; [15]): 1420 ng·h/mL
AUC(0-t) (clinical; [14]): 1790 ng·h/mL
Cmax (clinical; [13]): 246 ng/mL
Cmax (clinical; [15]): 194 ng/mL
Cmax (clinical; [14]): 258 ng/mL
Cmax (clinical; 24 mg, 24 mg t.i.w., cycle 1 Last Wednesday, mean): 361 ng/mL
half-life (clinical; 24 mg, T1/2, 24 mg q.d., cycle 1 Day 1, mean): 3.13 h
half-life (clinical; 24 mg, T1/2, 24 mg q.d., cycle 1 Day 21, mean): 3.12 h
half-life (clinical; 24 mg, T1/2, 24 mg t.i.w., cycle 1 Day 1, mean): 3.52 h
half-life (clinical; 24 mg, T1/2, 24 mg t.i.w., cycle 1 Last Wednesday, mean): 5.99 h
Tmax (clinical; 24 mg, 24 mg q.d., cycle 1 Day 1, median): 1.98 h
Tmax (clinical; 24 mg, 24 mg q.d., cycle 1 Day 21, median): 2 h
Tmax (clinical; 24 mg, 24 mg t.i.w., cycle 1 Day 1, median): 3 h
Tmax (clinical; 24 mg, 24 mg t.i.w., cycle 1 Last Wednesday, median): 1.05 h
AUC(0-inf) (clinical; [16]): 2680 ng·h/mL
AUC(0-t) (clinical; [16]): 2670 ng·h/mL
Cmax (clinical; [16]): 556 ng/mL
Cmax (clinical; 36 mg, 36 mg t.i.w., cycle 1 Last Wednesday, mean): 736 ng/mL
half-life (clinical; 36 mg, T1/2, 36 mg t.i.w., cycle 1 Day 1, mean): 4.84 h
half-life (clinical; 36 mg, T1/2, 36 mg t.i.w., cycle 1 Last Wednesday, mean): 6.57 h
Tmax (clinical; 36 mg, 36 mg t.i.w., cycle 1 Day 1, median): 2 h
Tmax (clinical; 36 mg, 36 mg t.i.w., cycle 1 Last Wednesday, median): 2.56 h
AUC(0-inf) (clinical; [17]): 3300 ng·h/mL
AUC(0-t) (clinical; [17]): 3290 ng·h/mL
Cmax (clinical; [17]): 695 ng/mL
Cmax (clinical; 56 mg, 56 mg t.i.w., cycle 1 Last Wednesday, mean): 930 ng/mL
half-life (clinical; 56 mg, T1/2, 56 mg t.i.w., cycle 1 Day 1, mean): 5.97 h
half-life (clinical; 56 mg, T1/2, 56 mg t.i.w., cycle 1 Last Wednesday, mean): 6.24 h
Tmax (clinical; 56 mg, 56 mg t.i.w., cycle 1 Day 1, median): 3.08 h
Tmax (clinical; 56 mg, 56 mg t.i.w., cycle 1 Last Wednesday, median): 2 h
AUC(0-inf) (clinical; [18]): 9560 ng·h/mL
AUC(0-t) (clinical; [18]): 7470 ng·h/mL
Cmax (clinical; [18]): 964 ng/mL
Cmax (clinical; 80 mg, 80 mg t.i.w., cycle 1 Last Wednesday, mean): 757 ng/mL
half-life (clinical; 80 mg, T1/2, 80 mg t.i.w., cycle 1 Day 1, mean): 4.77 h
half-life (clinical; 80 mg, T1/2, 80 mg t.i.w., cycle 1 Last Wednesday, mean): 5.28 h
Tmax (clinical; 80 mg, 80 mg t.i.w., cycle 1 Last Wednesday, median): 3 h
AUC(0-inf) (clinical; [19]): 5310 ng·h/mL
AUC(0-t) (clinical; [19]): 6640 ng·h/mL
Cmax (clinical; [19]): 713 ng/mL
Cmax (clinical; 120 mg, 120 mg t.i.w., cycle 1 Last Wednesday, mean): 910 ng/mL
half-life (clinical; 120 mg, T1/2, 120 mg t.i.w., cycle 1 Day 1, mean): 6.18 h
half-life (clinical; 120 mg, T1/2, 120 mg t.i.w., cycle 1 Last Wednesday, mean): 10.6 h
Tmax (clinical; 120 mg, 120 mg t.i.w., cycle 1 Day 1, median): 3.04 h
Tmax (clinical; 120 mg, 120 mg t.i.w., cycle 1 Last Wednesday, median): 3.17 h
AUC(0-t) (clinical; [20]): 7980 ng·h/mL
Cmax (clinical; [20]): 819 ng/mL
Cmax (clinical; 160 mg, 160 mg t.i.w., cycle 1 Last Wednesday, mean): 863 ng/mL
half-life (clinical; 160 mg, T1/2, 160 mg t.i.w., cycle 1 Day 1, mean): 8.75 h
half-life (clinical; 160 mg, T1/2, 160 mg t.i.w., cycle 1 Last Wednesday, mean): 3.99 h
Tmax (clinical; 160 mg, 160 mg t.i.w., cycle 1 Day 1, median): 2.52 h
Tmax (clinical; 160 mg, 160 mg t.i.w., cycle 1 Last Wednesday, median): 5.57 h
Cmax (clinical; 200 mg, 200 mg t.i.w., cycle 1 Day 1, mean): 1290 ng/mL
Cmax (clinical; 200 mg, 200 mg t.i.w., cycle 1 Last Wednesday, n 1): 845 ng/mL
half-life (clinical; 200 mg, T1/2, 200 mg t.i.w., cycle 1 Day 1, mean): 9.55 h
Tmax (clinical; 200 mg, 200 mg t.i.w., cycle 1 Day 1, median): 2 h
